Converted amounts (≈) assume the structure as drawn.
Legend:
[1] = tested on: Streptococcus mutans UA159; test: Streptococcus mutans cell growth inhibition; type: cell-based
S. mutans biofilm = test: Streptococcus mutans biofilm formation inhibition; type: cell-based; conditions: 16 h, read-out: IC50 Biofilm
[2] = target: S. mutans dihydrofolate reductase (SmDHFR) (Streptococcus mutans, UniProt Q8DUI2); test: SmDHFR enzymatic activity assay; type: biochemical
[3] = tested on: Streptococcus sanguinis SK36; test: Streptococcus sanguinis cell growth and biofilm formation; type: cell-based; conditions: 1.56 μM, P > 0.05
[4] = tested on: Streptococcus gordonii DL1; test: Streptococcus gordonii cell growth and biofilm formation; type: cell-based; conditions: 1.56 μM, P > 0.05

MIC ([1]; UA159): 0.0488 µM (≈ 0.018 µg/mL)
IC50 ([1]; UA159, read-out: IC50 Growth): 0.0425 ± 0.00322 µM
IC50 (S. mutans biofilm): 0.0491 ± 0.0041 µM
IC50 [2]: 0.0022 ± 0.0007 µM
Ki [2]: 0.0013 ± 0.0004 µM
SMILES: COc1cc(NCc2ccc3nc(N)nc(N)c3c2C)cc(OC)c1OC [TMQ, trimetrexate]
inhibition of biofilm formation of S. sanguinis [3]: did not inhibit
inhibition of biofilm formation of S. gordonii [4]: did not inhibit
